Patent US6642411B1, “Compounds and compositions for delivering active agents” (Emisphere Technologies, Inc., priority 1998, dated 2003)
In brackets after ≈: the same amount, converted by molar mass. Where two headings read alike, the source gives them in different places.

Assay: Solubility of the carrier compound
Type: physicochemical

SMILES | solubility (aqueous NaOH solution, aqueous buffer, thermodynamic from solid, 200 mg+350 μl 2N NaOH+650 μl H2O, pH 7.67, read-out: Solubility) [mg/mL] | solubility (clear solution, pH=6.85) [mg/mL]
CC(C(=O)O)c1ccc(NC(=O)c2ccccc2O)cc1 (centres unmarked) [Example 1, 2-(4-(N-salicyloyl)aminophenyl)propionic acid] | 200 (≈ 701 mM) | –
CC(C(=O)[O-])c1ccc(NC(=O)c2ccccc2O)cc1.[Na+] (centres unmarked) [Example 2, sodium 2-(4-(N-salicyloyl)aminophenyl)propionate] | – | 200
